System: soyabean crop
Assay: Evaluation of % damage in soyabean crop using safener (prothioconazole phytotoxicity reduction)
Description: A 480 SC (suspension concentrate) formulation of prothioconazole was used. The application amount of prothioconazole was high in an amount of 350 g ai/ha.
A 480 SC (suspension concentrate) formulation of prothioconazole was used. The application amount of prothioconazole was lower in an amount of 175 g ai/ha.

## mancozeb
Prothioconazole 175 g ai/ha (480 SC) + safener 560 g ai/ha, ratio 1:3.2
  % Damage: 15.0%
Prothioconazole 175 g ai/ha (480 SC) + safener 1120 g ai/ha, ratio 1:6.4
  % Damage: 18.0%
Prothioconazole 175 g ai/ha (480 SC) + safener 1680 g ai/ha, ratio 1:9.6
  % Damage: 11.7%
Prothioconazole 350 g ai/ha (480 SC) + safener 560 g ai/ha, ratio 1:1.6
  % Damage: 32.5%
Prothioconazole 350 g ai/ha (480 SC) + safener 1120 g ai/ha, ratio 1:3.2
  % Damage: 21.7%
Prothioconazole 350 g ai/ha (480 SC) + safener 1680 g ai/ha, ratio 1:4.8
  % Damage: 19.2%

— patent US20250318521A1, “COMBINATION FOR REDUCING PHYTOTOXICITY OF SYSTEMIC FUNGICIDES IN CROPS AND RELATED METHODS” (UPL Mauritius Limited, priority 2024, published 2025)
